For eleven molecules, pest or weed control results are on record in patent US20180002288A1, “USE OF PICOLINAMIDES AS FUNGICIDES” (DOW AGROSCIENCES LLC, priority 2014, published 2018).

Read-outs that look alike come from different tables or passages of the source.

In one experiment the test system is Puccinia triticina. Nature of the experiment: Wheat Brown Rust fungicidal activity (PUCCRT). The experiment is classed as in vivo. The note with it: for pest or weed control at 121.5 g/ha: Low Volume Cereal Activity at 121.5 g/Ha; for pest or weed control at 100 ppm: wheat, high volume.
A further experiment has as its system Phakopsora pachyrhizi. Nature of the experiment: Asian Soybean Rust fungicidal activity (PHAKPA). As to conditions: Phakopsora pachyrhizi, in Glycine max.
The next experiment relates to Zymoseptoria tritici. As to the kind of experiment: Leaf Blotch of Wheat fungicidal activity (SEPTTR). The experiment is classed as in vivo. As to conditions: for pest or weed control at 121.5 g/ha: Low Volume Cereal Activity at 121.5 g/Ha; for pest or weed control at 100 ppm: wheat, high volume.
[1] abbreviates: 24 h, 1 Day Protectant, read-out: PUCCRT 1DP (Wheat Brown Rust, 1 Day Protectant).
The mark [2] stands for this setting: 72 h, 3 Day Curative, read-out: PUCCRT 3DC (Wheat Brown Rust, 3 Day Curative).
[3] abbreviates: 24 h, 1 Day Protectant, read-out: SEPTTR 1DP (Wheat Leaf Blotch, 1 Day Protectant).
The mark [4] stands for this setting: 72 h, 3 Day Curative, read-out: SEPTTR 3DC (Wheat Leaf Blotch, 3 Day Curative).
[5] abbreviates: 24 h, 1 Day Protectant, read-out: PUCCRT 1DP % Control rating.
The mark [6] stands for this setting: 72 h, 3 Day Curative, read-out: PUCCRT 3DC % Control rating.
The mark [7] stands for this setting: 24 h, 1 Day Protectant, read-out: SEPTTR 1DP % Control rating.
Setting [8] is: 72 h, 3 Day Curative, read-out: SEPTTR 3DC % Control rating.

Take `COc1ccnc(C(=O)N[C@@H](C)C(=O)O[C@@H](C)[C@H](Oc2ccccc2)c2ccc(F)cc2)c1OCOC(C)=O` [Example 241]: the pest or weed control at 121.5 g/ha with Puccinia triticina (setting [1]), in the experiment with Puccinia triticina (setting [2]), with Zymoseptoria tritici (setting [3]) and in the experiment with Zymoseptoria tritici (setting [4]) was greater than 80% in each case. Further, the pest or weed control at 25 ppm in the experiment with Phakopsora pachyrhizi (24 h, read-out: PHAKPA 1DP % Control rating, soybean, high volume, 25 ppm, 1 Day Protectant) is greater than 80%; in the experiment on Phakopsora pachyrhizi (72 h, read-out: PHAKPA 3DC % Control rating, soybean, high volume, 25 ppm, 3 Day Curative), less than 0%.
`COc1ccnc(C(=O)N[C@@H](C)C(=O)O[C@@H](C)[C@H](Oc2cccc(Cl)c2)c2ccccc2)c1O` [Example 118]: the pest or weed control at 100 ppm in the experiment with Puccinia triticina (setting [5]), with Puccinia triticina (setting [6]), in the experiment on Zymoseptoria tritici (setting [7]) and in the experiment with Zymoseptoria tritici (setting [8]) was greater than 80% throughout.
As for `COc1ccnc(C(=O)N[C@@H](C)C(=O)O[C@@H](C)[C@H](Oc2ccc(C)cc2Cl)c2ccccc2)c1OC(C)=O` [Example 243], the pest or weed control at 121.5 g/ha in the experiment with Puccinia triticina (setting [1]) was greater than 80%; in the experiment on Puccinia triticina (setting [2]) it was less than 80%; in the experiment on Zymoseptoria tritici (setting [3]), greater than 80%; in the experiment with Zymoseptoria tritici (setting [4]) it was greater than 80%.
On to `COc1ccnc(C(=O)N[C@@H](C)C(=O)O[C@@H](C)[C@H](Oc2ccc(F)cc2)c2ccc(F)cc2)c1OCOC(C)=O` [Example 254], for which the pest or weed control at 121.5 g/ha in the experiment on Puccinia triticina (setting [1]), in the experiment with Puccinia triticina (setting [2]), with Zymoseptoria tritici (setting [3]) and in the experiment with Zymoseptoria tritici (setting [4]) was greater than 80% each time.
For `COc1cc(F)ccc1[C@@H](OCC(F)F)[C@H](C)OC(=O)[C@H](C)NC(=O)c1nccc(OC)c1O` [Example 288], the pest or weed control at 100 ppm was greater than 80% in the experiment on Puccinia triticina (setting [5]), greater than 80% with Puccinia triticina (setting [6]), less than 80% in the experiment with Zymoseptoria tritici (setting [7]) and greater than 80% in the experiment on Zymoseptoria tritici (setting [8]).
For `COc1ccnc(C(=O)N[C@@H](C)C(=O)O[C@@H](C)[C@H](Oc2ccccc2)c2ccccc2)c1O` [Example 114], the pest or weed control at 100 ppm in the experiment on Puccinia triticina (setting [5]), in the experiment with Puccinia triticina (setting [6]), in the experiment on Zymoseptoria tritici (setting [7]) and in the experiment with Zymoseptoria tritici (setting [8]) was greater than 80% in each case.
Take `COc1ccnc(C(=O)N[C@@H](C)C(=O)O[C@@H](C)[C@H](OCC2CC2)c2cccc(-c3ccccc3)c2)c1OC(C)=O` [Example 222]: the pest or weed control at 121.5 g/ha with Puccinia triticina (setting [1]), in the experiment with Puccinia triticina (setting [2]), with Zymoseptoria tritici (setting [3]) and with Zymoseptoria tritici (setting [4]) was greater than 80% each time.
Consider `COc1ccnc(C(=O)N[C@@H](C)C(=O)O[C@@H](C)C(Oc2ccc(F)cc2)c2ccc(F)cc2)c1O` (stereo partly shown) [Example 147], for which the pest or weed control at 100 ppm is greater than 80% in the experiment with Puccinia triticina (setting [5]), less than 80% in the experiment with Puccinia triticina (setting [6]), greater than 80% in the experiment on Zymoseptoria tritici (setting [7]) and greater than 80% in the experiment with Zymoseptoria tritici (setting [8]).
Take `COc1ccnc(C(=O)N[C@@H](C)C(=O)O[C@@H](C)[C@H](Oc2ccc(C)cc2)c2ccccc2)c1OC(C)=O` [Example 246]: the pest or weed control at 121.5 g/ha in the experiment on Puccinia triticina (setting [1]), in the experiment on Puccinia triticina (setting [2]), in the experiment on Zymoseptoria tritici (setting [3]) and in the experiment with Zymoseptoria tritici (setting [4]) was greater than 80% each time.
Take `COc1ccnc(C(=O)N[C@H](C(=O)O[C@@H](C)[C@H](Oc2ccc(C(F)(F)F)cc2)c2ccccc2)C(C)C)c1OCOC(C)=O` [Example 197]: the pest or weed control at 121.5 g/ha in the experiment on Puccinia triticina (setting [1]) was greater than 80%; in the experiment with Puccinia triticina (setting [2]) it was less than 80%; with Zymoseptoria tritici (setting [3]), greater than 80%; with Zymoseptoria tritici (setting [4]) it was less than 0%.
Regarding `COc1ccnc(C(=O)N[C@@H](Cc2ccccc2)C(=O)O[C@@H](C)[C@H](Oc2cccc(F)c2)c2ccccc2)c1O` [Example 128], the pest or weed control at 100 ppm in the experiment with Puccinia triticina (setting [5]) was greater than 80%; in the experiment on Puccinia triticina (setting [6]), less than 80%; in the experiment with Zymoseptoria tritici (setting [7]), less than 0%; with Zymoseptoria tritici (setting [8]) it was less than 80%.
